Results reported in PubChem BioAssay (NCI).
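Cells were grown in 96-well plates and exposed to each compound for 48 hours at five concentrations; endpoints were interpolated linearly between bracketing concentrations, or set to the highest concentration if not reached. At the GI50, growth is halved. Definition used: TGI = concentration required for complete inhibition of growth.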

Legend:
Assay in all cases: NCI-60 cell line screen, 48 h
[1] = test system: A498 renal
[2] = test system: BT-549 breast
[3] = test system: CAKI-1 renal
[4] = test system: HCT-116 colon
[5] = test system: IGROV1 ovarian
[6] = test system: NCI-H226 lung
[7] = test system: OVCAR-5 ovarian
[8] = test system: SF-539 CNS
[9] = test system: SNB-75 CNS
[10] = test system: UACC-257 melanoma

| SMILES | GI50 [1] [µM] | TGI [1] [µM] | GI50 [2] [µM] | TGI [2] [µM] | GI50 [3] [µM] | TGI [3] [µM] | GI50 [4] [µM] | TGI [4] [µM] | GI50 [5] [µM] | TGI [5] [µM] | GI50 [6] [µM] | TGI [6] [µM] | GI50 [7] [µM] | TGI [7] [µM] | GI50 [8] [µM] | TGI [8] [µM] | TGI [9] [µM] | GI50 [10] [µM] | TGI [10] [µM] | GI50 [9] [µM] |
| --- | --- | --- | --- | --- | --- | --- | --- | --- | --- | --- | --- | --- | --- | --- | --- | --- | --- | --- | --- | --- |
| C#CCN(Cc1nc2cc(C(F)(F)F)ccc2nc1-c1ccccc1)c1ccc(C)cc1 | 10.6 | 27.5 | 22.2 | 69.9 | 8.15 | > 43.4 | 0.628 | 15.5 | 6.13 | > 64.9 | 8.07 | 33 | > 21.2 | > 40.9 | 24.3 | > 100 | > 25.2 | 19.5 | 59 | – |
| Cc1ccc2c(c1)c(Sc1ccc(C(=O)NO)cc1)c1n2CN(C)CC1 | 0.191 | 2.16 | 1.8 | 4.57 | 3.87 | 13.9 | 1.59 | 3.54 | 2.23 | 5.46 | 1.83 | 4.86 | 1.75 | 5.54 | 1.4 | 2.92 | 3.76 | 1.48 | 5.37 | 0.96 |
| CCc1nc(N)nc(N)c1-c1ccc2nnn(O)c2c1 | – | > 100 | – | > 100 | – | > 100 | – | > 100 | – | > 100 | – | > 100 | – | > 100 | – | > 100 | > 100 | – | > 100 | – |
| N=C(N)SCc1c2ccccc2c(CSC(=N)N)c2ccccc12 | 7.42 | 22.9 | 16.9 | 58.3 | 7.28 | 27.7 | 2.59 | 16.6 | 18.2 | 78.4 | 6.44 | 30.6 | 14.8 | 28.7 | 5.11 | 19.4 | 26.9 | 23.2 | 45 | 12.2 |
| CC1=NN(c2ccc(S(=O)(=O)O)cc2)C(=O)/C1=C/c1ccc(Cl)cc1 | – | > 100 | – | > 100 | – | > 100 | – | > 100 | – | > 100 | – | > 100 | – | > 100 | – | > 100 | > 100 | – | > 100 | – |
| CCCc1cc(=O)n2c(C(=O)Nc3cccc(C(=O)OCC)c3)c(C(=O)Nc3ccc(F)cc3)sc2n1 | 8.57 | 32.2 | > 140 | > 140 | 4.95 | 28.2 | 1.06 | > 140 | 24.8 | 65.9 | 5.83 | 27.7 | 136 | > 140 | 23.8 | > 140 | 17.5 | 54.1 | > 140 | 3.54 |
| C[C@@H]1CCC([C@@H](C)[C@H]2CC[C@H]3[C@@H]4CC[C@H]5C[C@@H](O)CC[C@]5(C)[C@H]4CC[C@]23C)=NC1 | – | > 100 | – | > 85 | – | 66.6 | – | > 100 | – | > 100 | – | > 100 | – | > 100 | – | > 100 | > 71 | – | > 100 | – |
| CCCCCCCCC/C(=N\NC(=O)c1ccncc1)c1ccc(O)c(O)c1O | 1.56 | > 100 | 0.36 | 67.2 | 0.088 | > 100 | 0.121 | 12.8 | 0.184 | > 78.1 | 0.271 | 14.7 | 0.765 | 78.6 | 0.294 | 8.71 | > 100 | 0.293 | 9.32 | 0.631 |
| O=C1C=CC(=O)c2c1ccc1c3ccccc3n(-c3ccccc3)c21 | – | 35.2 | – | 27 | – | 19.6 | – | 7.03 | – | 34.5 | – | 40 | – | 31.7 | – | 29.7 | 40.2 | – | 19.2 | – |
| COc1ccc(Nc2cc(C)nc(NCc3ccccc3)n2)cc1 | 1.83 | 13.6 | 4.42 | 17.7 | 3.9 | 17.2 | 2.49 | 13 | 6.67 | 23.4 | 6.14 | 21.3 | 5.31 | 20.1 | 4.24 | 16.7 | 18.8 | 3.18 | 13.3 | 4.65 |
| C[C@]12CC[C@@H]3c4cc(O)c(O)cc4CC[C@H]3[C@@H]1CC[C@@H]2O | 19.7 | 62.3 | 1.78 | 42.3 | 3.83 | > 88.9 | 4.4 | > 51.4 | 11 | > 91.3 | 26.8 | > 100 | 25 | > 100 | 1.64 | 5.45 | 8.32 | 13 | > 100 | 1.55 |
| C=C1C(=O)O[C@H]2C[C@@H]1CC/C(C)=C/CC/C(C)=C/CC[C@@]2(C)O | 43.8 | > 100 | 24.2 | 59.9 | 34.6 | > 100 | 17.6 | 32.8 | 23.1 | 74.2 | 24.4 | 58.1 | > 100 | > 100 | 24.9 | 59.3 | > 100 | > 100 | > 100 | 70.8 |
| COc1cccc(/C=N/NC(=O)c2ccccc2N2CCCC2)c1O | 4.97 | > 100 | 12.6 | > 100 | 3.97 | > 100 | 3.3 | > 100 | 7.05 | > 100 | 1.84 | 9.06 | 9.72 | > 100 | 3.73 | 24.1 | > 100 | 3.05 | > 100 | 16.9 |
| [Cl][Hg][c]1ccc(Cl)s1 | 17.2 | 31.2 | 2.11 | 5.21 | 1.69 | 3.29 | 1.49 | 2.97 | 1.62 | 3.67 | 4.71 | 28.6 | 1.72 | 3.29 | 2.03 | 4.46 | 17.3 | 1.54 | 3.04 | 3.57 |
